Data on five compounds can be found in patent US6900331B2, “Derivatives of epothilone B and D and synthesis thereof” (University of Notre Dame, priority 2002, dated 2005).

As a reminder, the IC50 is the point on the concentration scale where inhibition reaches its midpoint. Low readings indicate higher potency, high ones lower potency.

SMILES strings stand for the structures. A value given as a limit tells only on which side of the number the result lay.

The test system of assay [1] is tubulin. Put plainly: Preliminary tubulin polymerization activity. In kind it is biochemical. The following applies: preliminary biological investigations.
In assay [2] the test system is tumor cell. Put plainly: Tumor cell growth assays. The format is cell-based. The following applies: fold as active as epothilone B.
Assay [3] concerns Human breast carcinoma cell line MCF-7. Put plainly: Cytotoxicity assay (SRB), MCF-7. The format is cell-based. The following applies: 3 days exposure, SRB staining. On the procedure:
(§1) Cell lines and culture conditions: Human breast carcinoma cell line MCF-7, multi-drug resistant breast carcinoma cell line NCI/ADR, non-small cell lung carcinoma cell line NCI-H460 and glioma cell line SF-268 were obtained from the National Cancer Institute. All cell lines were maintained in RPMI-1640 medium (Gibco/BRL, Rockville, Md.) supplemented with 2 mM L-glutamine, 25 mM HEPES and 10% FBS (Hyclone, Logan, Utah). Cells were maintained in a humidified incubator at 37° C. in 5% CO2.
(§2) Cytoloxicity assays: Tumor cells were seeded in 100 μl at 5000 (MCF-7), 7500 (NCI/ADR), 5000 (NCI-H460) and 7500 (SF-268) cells per well in 96-well plates. Cells were allowed to adhere for 24 hours. Each compound ranging from 0.001 to 1000 nM in 100 μl was added to cells in triplicate wells. After 3 days, cells were fixed at 4° C. for 1 hour with 10% trichloroacetic acid and then stained with 0.2% sulforhodamine B (SRB)/1% acetic acid for 20 minutes at room temperature. The unbounded dye was rinsed away with 1% acetic acid, and the bounded SRB was then extracted with 200 μl of 10 mM Tris base. The absorbance was measured at 515 nm using a 96-well microtiter plate reader (Spectra Max 250, Molecular Devices). The IC50 values were calculated using a KaleidaGraph program. The experiments were performed twice.

Assay [4] relates to non-small cell lung carcinoma cell line NCI-H460. Put plainly: Cytotoxicity assay (SRB), NCI-H460. In kind it is cell-based, Human. The following applies: 3 days exposure, SRB staining. The procedure:
as §1, §2

Assay [5] concerns multi-drug resistant breast carcinoma cell line NCI/ADR. Put plainly: Cytotoxicity assay (SRB), NCI/ADR. The format is cell-based, Human. The settings on record: 3 days exposure, SRB staining. The procedure: as §1, §2
The subject of assay [6] is glioma cell line SF-268. Put plainly: Cytotoxicity assay (SRB), SF-268. In kind it is cell-based, Human. The following applies: 3 days exposure, SRB staining. On the procedure:
as §1, §2
On the technique in general: In SRB staining, fixed cells bind dye roughly in proportion to their protein.

Turning to `C/C(=C\c1csc(C)n1)[C@H]1OC(=O)C[C@H](O)C(C)(C)C(=O)[C@H](C)[C@@H](O)[C@@H](C)CCC[C@@]2(C)O[C@H]2[C@@H]1C` [Compound 3, (R)-C14-methyl epothilone B], the tubulin polymerization activity result in assay [1] was “significant”. Besides, in assay [2], the “activity relative to epothilone B itself” value is given as more than 2 ×. For the same compound, the IC50 in assay [3] was determined as 3 nM; in assay [4], 3 nM; in assay [5], 23 nM; in assay [6], 3 nM.

Consider `C/C(=C\c1csc(C)n1)[C@H]1OC(=O)C[C@H](O)C(C)(C)C(=O)[C@H](C)[C@@H](O)[C@@H](C)CCC[C@@]2(C)O[C@H]2[C@H]1C` [Compound 4, (S)-C14-methyl epothilone B], for which the IC50 in assay [3], in assay [4], in assay [5] and in assay [6] was more than 1000 nM in each case.

As for `C/C1=C/[C@H](C)[C@@H](/C(C)=C/c2csc(C)n2)OC(=O)C[C@H](O)C(C)(C)C(=O)[C@H](C)[C@@H](O)[C@@H](C)CCC1` [Compound 12, (S)-C14-methyl epothilone D], in assay [1], the tubulin polymerization activity entry was “significant”. In addition, the IC50 in assay [3] (Homo sapiens, MCF7, 72 h) was determined as 35 nM; in assay [4] (Homo sapiens, NCI-H460, 72 h), 42 nM; in assay [5] (Homo sapiens, NCI/ADR-RES, 72 h) it was 238 nM; in assay [6] (Homo sapiens, SF-268, 72 h), 42 nM.

For `C/C1=C/[C@@H](C)[C@@H](/C(C)=C/c2csc(C)n2)OC(=O)C[C@H](O)C(C)(C)C(=O)[C@H](C)[C@@H](O)[C@@H](C)CCC1` [Compound 13, (R)-C14-methyl epothilone D], the tubulin polymerization activity entry in assay [1] was “relatively weak activity”. Also, the IC50 in assay [3], in assay [4], in assay [5] and in assay [6] was more than 1000 nM each time.

`C/C1=C/C[C@@H](/C(C)=C/c2csc(C)n2)OC(=O)C[C@H](O)C(C)(C)C(=O)[C@H](C)[C@@H](O)[C@@H](C)CCC1` [Epothilone D, reference compound]: the IC50 turned out to be 5 nM in assay [3], 20 nM in assay [4], 26 nM in assay [5] and 7 nM in assay [6].
